Series [1] has as its target T1, Muscarinic acetylcholine receptor M1 (Homo sapiens, UniProt P11229).
T1 sequence (P11229 whole entry): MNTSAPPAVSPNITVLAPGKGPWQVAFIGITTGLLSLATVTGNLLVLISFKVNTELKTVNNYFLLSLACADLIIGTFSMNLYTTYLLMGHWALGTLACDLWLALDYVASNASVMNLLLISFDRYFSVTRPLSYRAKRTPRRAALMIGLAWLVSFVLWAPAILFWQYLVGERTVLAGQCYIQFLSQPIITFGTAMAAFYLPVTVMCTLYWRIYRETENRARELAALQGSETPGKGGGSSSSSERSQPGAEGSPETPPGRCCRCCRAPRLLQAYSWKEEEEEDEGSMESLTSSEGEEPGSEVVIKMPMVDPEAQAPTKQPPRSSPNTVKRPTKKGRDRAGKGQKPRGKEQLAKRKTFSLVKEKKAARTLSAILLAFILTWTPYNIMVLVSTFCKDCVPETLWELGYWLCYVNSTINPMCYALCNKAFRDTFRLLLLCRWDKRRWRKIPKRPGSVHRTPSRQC
Nature of the series: Positive allosteric modulation of human muscarinic acetylcholine M1 receptor expressed in CHO cells in presence of acetylcholine at EC20 concentration by calcium mobilization assay. The series is classed as functional, cell-based. (In general: A change in cytosolic calcium serves as a functional read-out for many receptors and channels.)

The target of series [2] is T2, Muscarinic acetylcholine receptor M1 (Homo sapiens) (UniProt P11229).
T2 sequence (whole entry): T1 sequence (P11229 whole entry)
Nature of the series: Positive allosteric modulation of human muscarinic acetylcholine M1 receptor expressed in CHO cells in presence of acetylcholine at EC20 concentration by calcium mobilization assay relative to acetylcholine. The series is classed as functional, cell-based. As to conditions: time 3.5 min.

Series [3] concerns the target T3, Muscarinic acetylcholine receptor M2 (Homo sapiens, UniProt P08172).
T3 sequence (P08172 whole entry): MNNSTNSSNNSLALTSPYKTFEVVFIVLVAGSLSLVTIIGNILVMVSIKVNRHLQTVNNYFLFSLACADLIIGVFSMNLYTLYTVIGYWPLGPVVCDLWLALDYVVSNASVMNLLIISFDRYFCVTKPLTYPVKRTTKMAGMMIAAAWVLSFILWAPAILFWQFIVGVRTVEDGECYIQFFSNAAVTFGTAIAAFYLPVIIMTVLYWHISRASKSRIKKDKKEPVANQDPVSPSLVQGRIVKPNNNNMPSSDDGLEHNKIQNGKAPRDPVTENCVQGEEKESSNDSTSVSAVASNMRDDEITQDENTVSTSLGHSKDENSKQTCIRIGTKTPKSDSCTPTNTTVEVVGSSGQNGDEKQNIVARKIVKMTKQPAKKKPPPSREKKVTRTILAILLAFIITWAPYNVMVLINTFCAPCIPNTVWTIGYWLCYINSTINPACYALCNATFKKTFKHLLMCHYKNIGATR
The series can be described thus: Positive allosteric modulation of human muscarinic acetylcholine M2/Gqi5 receptor expressed in CHO cells in presence of acetylcholine at EC20 concentration by calcium mobilization assay. It counts as functional, cell-based.

For series [4], the target named is Muscarinic acetylcholine receptor M3 (Homo sapiens, UniProt P20309). The series can be described thus: Positive allosteric modulation of human muscarinic acetylcholine M3 receptor expressed in CHO cells in presence of acetylcholine at EC20 concentration by calcium mobilization assay. It counts as functional, cell-based.
Series [5] addresses T4, Muscarinic acetylcholine receptor M5 (Homo sapiens, UniProt P08912).
T4 sequence (P08912 whole entry): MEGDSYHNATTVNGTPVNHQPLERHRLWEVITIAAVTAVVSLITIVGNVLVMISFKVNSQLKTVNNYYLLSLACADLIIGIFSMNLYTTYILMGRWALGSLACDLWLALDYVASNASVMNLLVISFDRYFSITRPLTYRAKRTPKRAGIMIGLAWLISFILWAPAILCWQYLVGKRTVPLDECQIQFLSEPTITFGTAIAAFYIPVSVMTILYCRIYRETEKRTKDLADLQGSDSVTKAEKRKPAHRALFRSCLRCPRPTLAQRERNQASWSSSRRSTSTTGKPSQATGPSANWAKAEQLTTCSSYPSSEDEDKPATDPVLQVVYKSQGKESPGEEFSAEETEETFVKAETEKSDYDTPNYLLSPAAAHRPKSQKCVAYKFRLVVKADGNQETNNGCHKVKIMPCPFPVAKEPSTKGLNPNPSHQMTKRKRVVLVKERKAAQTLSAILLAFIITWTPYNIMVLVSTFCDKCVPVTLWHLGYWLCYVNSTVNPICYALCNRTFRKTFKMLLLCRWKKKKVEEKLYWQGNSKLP
The series can be described thus: Positive allosteric modulation of human muscarinic acetylcholine M5 receptor expressed in CHO cells in presence of acetylcholine at EC20 concentration by calcium mobilization assay. It counts as functional, cell-based.

Series [6] can be described thus: Protein binding in rat plasma assessed as unbound fraction measured after 4 hrs by equilibrium dialysis assay. The series is classed as ADME, cell-free.
Series [7] in a line: Protein binding in rat brain assessed as unbound fraction measured after 4 hrs by equilibrium dialysis assay. The series is classed as ADME, tissue-based. (Equilibrium dialysis compares concentrations on both sides of a semipermeable membrane.)
A short description of series [8]: Protein binding in human plasma assessed as unbound fraction measured after 4 hrs by equilibrium dialysis assay. It counts as ADME, cell-free.
Series [9] in a line: Brain to plasma partition coefficient, Kp of the compound in rat at 0.20 mg/kg, iv administered as cassette dose measured at 0.25 hrs. The series is classed as ADME, organism-based. As to conditions: 0.2 mg/kg.
A short description of series [10]: Unbound brain-to-plasma concentration ratio of the compound in rat at 0.20 mg/kg, iv administered as cassette dose measured at 0.25 hrs. The series is classed as ADME, organism-based. The note with it: 0.2 mg/kg.
Setting [11] is: filed as positive allosteric modulator.

Chain of Muscarinic acetylcholine receptor M3 (P20309 whole entry): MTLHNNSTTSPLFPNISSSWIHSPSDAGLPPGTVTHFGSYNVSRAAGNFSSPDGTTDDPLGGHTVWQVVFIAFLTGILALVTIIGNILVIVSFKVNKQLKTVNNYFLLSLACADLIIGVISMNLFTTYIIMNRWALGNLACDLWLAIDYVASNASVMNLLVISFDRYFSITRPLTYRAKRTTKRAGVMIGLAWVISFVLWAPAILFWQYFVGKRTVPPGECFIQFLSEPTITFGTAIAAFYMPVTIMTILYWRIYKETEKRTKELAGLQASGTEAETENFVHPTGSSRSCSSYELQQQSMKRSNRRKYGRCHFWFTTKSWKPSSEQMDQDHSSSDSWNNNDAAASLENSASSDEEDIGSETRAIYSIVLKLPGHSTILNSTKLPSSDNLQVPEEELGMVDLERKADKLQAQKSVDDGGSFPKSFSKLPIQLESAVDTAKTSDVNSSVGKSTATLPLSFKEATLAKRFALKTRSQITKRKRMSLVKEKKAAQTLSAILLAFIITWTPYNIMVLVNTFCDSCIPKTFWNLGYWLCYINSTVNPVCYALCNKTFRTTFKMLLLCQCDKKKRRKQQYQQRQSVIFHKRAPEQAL

For the compound `Cn1cc2c(-c3cc(F)c(CN4Cc5ncoc5C4=O)c(F)c3)cccc2n1`, the EC50 – broadly, the concentration needed to bring the measured effect to its halfway point – in series [1] is > 10 µM.
As to `Cn1cc2c(-c3cc(F)c(CN4Cc5sccc5C4=O)c(F)c3)cccc2n1`, in [1], the EC50 is 1.92 µM. Besides, the maximum response (Emax) – broadly, the greatest response seen or fitted, relative to the assay's reference – in [2] (setting [11]) worked out at 75%.
For `Cc1[nH]cc2c1C(=O)N(Cc1c(F)cc(-c3cccc4nn(C)cc34)cc1F)C2`, the concentration for a half-maximal effect (EC50) in series [1] was > 10 µM.
Turning to `Cn1cc2c(-c3cc(F)c(CN4Cc5ccsc5C4=O)c(F)c3)cccc2n1`, the EC50 in [1] came out at 2.16 µM. For the same compound, the Emax in series [2] (setting [11]) worked out at 66%.
As to `COCCn1ncc2c1C(=O)N(Cc1c(F)cc(-c3cccc4nn(C)cc34)cc1F)C2`, in series [1], the half-maximal effective concentration (EC50) was 3.93 µM. In series [2] (setting [11]), the maximal response (Emax) was found to be 84%.
With `Cn1cc2c(-c3cc(F)c(CN4Cc5cnn(CC6CCCO6)c5C4=O)c(F)c3)cccc2n1` (configuration not stated), the EC50 in [1] is 1.12 µM; in series [3] it was > 10 µM; in [4] it was > 10 µM; in series [5], > 10 µM. In addition, the maximal response (Emax) in series [2] (setting [11]) turned out to be 85%. Further, the Fu in [6] is listed as 0.027; in [7], 0.019; in series [8], 0.025.
Regarding `Cn1cc2c(-c3cc(F)c(CN4Cc5ccn(CC6CCCO6)c5C4=O)c(F)c3)cccc2n1` (configuration not stated), the Emax in series [2] (setting [11]) is 58%.
Still for that read-out and setting: under `Cn1cnc2ccc(-c3cc(F)c(CN4Cc5sccc5C4=O)c(F)c3)cc21` stands 60%; under `Cn1cc2c(-c3cc(F)c(CN4Cc5ccn(CCCO)c5C4=O)c(F)c3)cccc2n1`, 67%.
Same read-out and setting: next, `Cn1cc2c(-c3cc(F)c(CN4Cc5ccn(CCN6CCCC6)c5C4=O)c(F)c3)cccc2n1`: 56%.
`Cn1cc2c(-c3cc(F)c(CN4Cc5ocnc5C4=O)c(F)c3)cccc2n1`: the half-maximal effective concentration (EC50) in [1] was > 10 µM.
Take `Cn1cc2cc(-c3cc(F)c(CN4Cc5sccc5C4=O)c(F)c3)ccc2n1`: the Emax in series [2] (setting [11]) turned out to be 59%.
On the same count and under the same terms, next, `Cc1cc(-c2cc(F)c(CN3Cc4cnn(CC5CCCO5)c4C3=O)c(F)c2)ccn1` (configuration not stated): 65%.
Turning to `Cn1cc2cc(-c3cc(F)c(CN4Cc5cnn(CC6CCCO6)c5C4=O)c(F)c3)ccc2n1` (configuration not stated), the EC50 in series [1] turned out to be 1.66 µM. Besides, the Emax in series [2] (setting [11]) was found to be 79%.
With `Cn1cc2cccc(-c3cc(F)c(CN4Cc5cnn(CC6CCCO6)c5C4=O)c(F)c3)c2n1` (configuration not stated), in series [2] (setting [11]), the Emax was 66%.
Consider `Cn1cc2c(-c3cc(F)c(CN4Cc5cn(CC6CCCO6)nc5C4=O)c(F)c3)cccc2n1` (configuration not stated), for which, in series [1], the EC50 was determined as 3.54 µM. Also, the maximal effect (Emax) in series [2] (setting [11]) is 61%.
Turning to `Cn1cc2cc(-c3ccc(CN4Cc5sccc5C4=O)c(F)c3)ccc2n1`, the Emax in series [2] (setting [11]) amounted to 51%.
As to `O=C1c2scnc2CN1Cc1c(F)cc(-c2ccc3ncccc3c2)cc1F`, the EC50 in [1] was 8 µM. Also, the Emax in series [2] stood at 30%.
Turning to `Cn1cc2c(-c3cc(F)c(CN4Cc5cnn(CCO)c5C4=O)c(F)c3)cccc2n1`, in [1], the EC50 stood at 1.51 µM. Also, in [2] (setting [11]), the Emax turned out to be 84%.
As for `Cn1cc2cc(-c3cc(F)c(CN4Cc5ccsc5C4=O)c(F)c3)ccc2n1`, the Emax in series [2] (setting [11]) is 40%.
For the compound `Cn1cc2c(-c3cc(F)c(CN4Cc5cnn(CCN6CCCC6)c5C4=O)c(F)c3)cccc2n1`, in series [1], the concentration giving a half-maximal response (EC50) was 0.739 µM. In series [2] (setting [11]), the maximal effect (Emax) is 87%.
As to `Cn1cc2c(-c3ccc(CN4Cc5sccc5C4=O)c(F)c3)cccc2n1`, in series [2] (setting [11]), the maximum response (Emax) was determined as 67%.
Still for that read-out and setting: under `Cn1cc2cc(-c3cc(F)c(CN4Cc5occc5C4=O)c(F)c3)ccc2n1` stands 45%; under `Cn1cc2c(-c3cc(F)c(CN4Cc5cn(CCN6CCCC6)nc5C4=O)c(F)c3)cccc2n1`, 57%.
With `Cn1cc2cc(-c3ccc(CN4Cc5ncsc5C4=O)c(F)c3)ccc2n1`, the EC50 was 2 µM in series [1], > 10 µM in series [3], > 10 µM in [4] and > 10 µM in series [5]. Besides, the Emax in [2] (setting [11]) was determined as 60%. Also, the concentration ratio (Kp) (commonly tissue or fluid exposure divided by exposure in the circulation) in series [9] amounted to 2.1. Also, in series [10], the “K(p,uu,brain)” value is reported as 2.2. Besides, the Fu stood at 0.04 in series [6], 0.042 in [7] and 0.05 in [8].
In the case of `Cc1nn(C)cc1-c1cc(F)c(CN2Cc3cnn(CC4CCCO4)c3C2=O)c(F)c1` (configuration not stated), the maximum response (Emax) in series [2] (setting [11]) was found to be 77%.
As for `Cn1cc2c(-c3cc(F)c(CN4Cc5nc[nH]c5C4=O)c(F)c3)cccc2n1`, in [1], the 50% effective concentration (EC50) was > 10 µM.
`Cn1cc(-c2ccc(CN3Cc4ccsc4C3=O)c(F)c2)cn1`: the Emax in series [2] (setting [11]) is 67%.
